The record followed here is ChEMBL document CHEMBL3351985, “Prophylactic treatment of asthma by an ozone scavenger in a mouse model” (2015).

SMILES strings stand for the structures. Calls of active or inactive are those of the source. No cut-off for these calls is given here.

For test [1], the species on record is Mus musculus. Nature of the test: Antiasthmatic activity in ovalbumin-sensitized BALB/c mouse allergy model assessed as reduction in neutrophil count compound treated at 4 g through inhalation prior to ovalbumin challenge (reference value: 43.1 /mm3). In kind it is functional.
The species entered for test [2] is Mus musculus. Nature of the test: Antiasthmatic activity in ovalbumin-sensitized BALB/c mouse allergy model assessed as reduction in sub-epithelial fibrosis compound treated at 4 g through inhalation prior to ovalbumin challenge by hematoxylin eosin staining method relative to control. More on the design: scale not given: the % may be the effect or the level left. In kind it is functional.

The species named for test [3] is Mus musculus. Nature of the test: Antiasthmatic activity in ovalbumin-sensitized BALB/c mouse allergy model assessed as reduction in peribronchial inflammatory cell infiltration compound treated at 4 g through inhalation prior to ovalbumin challenge by hematoxylin eosin staining method relative to control. More on the design: scale not given: the % may be the effect or the level left. Type of test: functional.

For test [4], the species on record is Mus musculus. Nature of the test: Antiasthmatic activity in ovalbumin-sensitized BALB/c mouse allergy model assessed as reduction in lung aldehyde level compound treated at 4 g through inhalation prior to ovalbumin challenge. In kind it is functional, organism-based.
The species entered for test [5] is Mus musculus. Nature of the test: Antiasthmatic activity in ovalbumin-sensitized BALB/c mouse allergy model assessed as reduction in occlusion of the airway diameter by mucus compound treated at 4 g through inhalation prior to ovalbumin challenge by hematoxylin eosin staining method relative to control. In kind it is functional.
For test [6], the species on record is Mus musculus. As to the kind of experiment: Antiasthmatic activity in ovalbumin-sensitized BALB/c mouse allergy model assessed as reduction in epithelial cell mucus metaplasia compound treated at 4 g through inhalation prior to ovalbumin challenge by hematoxylin eosin staining method relative to control. In kind it is functional.
Test [7] is filed under the species Mus musculus. Nature of the test: Antiasthmatic activity in ovalbumin-sensitized BALB/c mouse allergy model assessed as reduction in eosinophil count compound treated at 4 g through inhalation prior to ovalbumin challenge (reference value: 11 /mm3). In kind it is functional.
Test [8] is filed under the species Mus musculus. Nature of the test: Antiasthmatic activity in ovalbumin-sensitized BALB/c mouse allergy model assessed as reduction in perivascular inflammatory cell infiltration compound treated at 4 g through inhalation prior to ovalbumin challenge by hematoxylin eosin staining method relative to control. In kind it is functional. The arrangement: scale not given: the % may be the effect or the level left.

The species named for test [9] is Mus musculus. Nature of the test: Antiasthmatic activity in ovalbumin-sensitized BALB/c mouse allergy model assessed as reduction in spleen tissue aldehyde level compound treated at 4 g through inhalation prior to ovalbumin challenge. In kind it is functional, organism-based.
Test [10] is filed under the species Mus musculus. Nature of the test: Antiasthmatic activity in ovalbumin-sensitized BALB/c mouse allergy model assessed as reduction in BAL aldehyde level compound treated at 4 g through inhalation prior to ovalbumin challenge. Type of test: functional, organism-based.

Turning to `C=C(C)[C@H]1CC=C(C)CC1` [D-LIMONENE], the Activity in test [1] is 29.8 /mm3; in test [2] it was 20%; in [3], 40%; in [7], 12.6 /mm3; in test [8], 40%. Besides, the outcome in [4], in test [9] and in [10] was Active. The figures for the “fold change (FC)” value in test [5] and in test [6] were 2 and 5, respectively.
